Tests used:
Type in all cases: cell-based
HAS-3 = HAS-3 mRNA expression in human keratinocytes (real time PCR); settings: Keratinocyte, 24 h, untreated negative control = 100%, GAPDH reference, n = 4, read-out: HAS-3 expression amount
HAS-2 = HAS-2 mRNA expression in human keratinocytes (real time PCR); settings: Keratinocyte, 24 h, untreated negative control = 100%, GAPDH reference, n = 4, read-out: HAS-2 expression amount
[1] = tested on: mouse melanoma cells [쥐의 멜라노마 세포(B-16 mouse melanoma cell)]; experiment: Inhibition of melanin production in B-16 mouse melanoma cells; settings: relative to control; for inhibition rate (melanin production): 3 days, absorbance at 400 nm per 10^6 cells, n = 3
[2] = tested on: sulfated glycosaminoglycan [황산화 글리코사미노글리칸], human fibroblast [인간 유래 섬유아세포]; experiment: Sulfated glycosaminoglycan synthesis in human fibroblasts (Blyscan kit); settings: 24 h; for sulfated glycosaminoglycan production amount: n = 4
[3] = tested on: collagen type I [콜라겐 타입 I], human fibroblast [인간 유래 섬유아세포]; experiment: Collagen type I synthesis in human fibroblasts (PICP EIA kit); settings: 48 h, n = 4

## N[C@H]1C(O)O[C@H](CO)[C@@H](O)[C@@H]1O (stereo partly shown) [글루코사민, reference compound]
HAS-3; 100 ppm
  activity at 100 ppm: 125%
HAS-2; 100 ppm
  activity at 100 ppm: 114%

## OC[C@H]1O[C@@H](Oc2ccc(O)cc2)[C@H](O)[C@@H](O)[C@@H]1O [알부틴, Arbutin, reference compound]
[1]; 200 ㎍/ml
  inhibition rate (melanin production): 31.3%

## COc1cc2ccc(=O)oc2c(OC)c1O [이소프락시딘, Isofraxidin]
[1]; 1 ㎍/ml
  inhibition rate (melanin production): 29.1%
[1]; 10 ㎍/ml
  inhibition rate (melanin production): 34.9%
[1]; concentration not given
  inhibition rate of melanin production (summary statement): ≥ 25%
HAS-3; 1 ppm
  activity at 1 ppm: 126%
HAS-3; 10 ppm
  activity at 10 ppm: 151%
HAS-2; 1 ppm
  activity at 1 ppm: 122%
HAS-2; 10 ppm
  activity at 10 ppm: 135%
[2]; 1 ㎍/ml
  sulfated glycosaminoglycan production amount: 0.50 ng/mL
[2]; 10 ㎍/ml
  sulfated glycosaminoglycan production amount: 1.64 ng/mL
[2]; 20 ㎍/ml
  sulfated glycosaminoglycan production amount: 2.98 ng/mL
[2]; Homo sapiens, Fibroblast, 20 ㎍/ml, relative to untreated control (0.46 ng/ml), n = 4, read-out: sulfated glycosaminoglycan production increase rate
  activation at 20 µg/mL: 548%
[3]; 10 ㎍/ml
  collagen production amount: 304 ng/mL
[3]; 20 ㎍/ml
  collagen production amount: 370 ng/mL
